How the values were obtained:
[1] = molecular target: Tyrosine-protein kinase ABL2 (Homo sapiens) (UniProt P42684); settings: Compound concentration 1000.0 nM
[2] = molecular target: RAC-gamma serine/threonine-protein kinase (Homo sapiens) (UniProt Q9Y243); settings: Compound concentration 1000.0 nM
[3] = molecular target: Calcium/calmodulin-dependent protein kinase kinase 1 (Homo sapiens) (UniProt Q8N5S9); settings: Compound concentration 1000.0 nM
[4] = molecular target: Cyclin-dependent kinase 2 (Homo sapiens) (UniProt P24941); settings: Compound concentration 1000.0 nM
[5] = molecular target: Cyclin-dependent kinase-like 1 (Homo sapiens) (UniProt Q00532); settings: Compound concentration 1000.0 nM
[6] = molecular target: Cyclin-dependent kinase-like 5 (Homo sapiens) (UniProt O76039); settings: Compound concentration 1000.0 nM
[7] = molecular target: Dual specificity protein kinase CLK4 (Homo sapiens) (UniProt Q9HAZ1); settings: Compound concentration 1000.0 nM
[8] = molecular target: Epidermal growth factor receptor (Homo sapiens) (UniProt P00533); settings: Compound concentration 1000.0 nM
[9] = molecular target: Ephrin type-A receptor 7 (Homo sapiens) (UniProt Q15375); settings: Compound concentration 1000.0 nM
[10] = system: Receptor-type tyrosine-protein kinase FLT3 (Homo sapiens), P36888 [D835Y]; settings: Compound concentration 1000.0 nM
[11] = system: Receptor-type tyrosine-protein kinase FLT3 (Homo sapiens), P36888 [K663Q]; settings: Compound concentration 1000.0 nM
[12] = molecular target: Inhibitor of nuclear factor kappa-B kinase subunit epsilon (Homo sapiens) (UniProt Q14164); settings: Compound concentration 1000.0 nM
[13] = molecular target: Leukocyte tyrosine kinase receptor (Homo sapiens) (UniProt P29376); settings: Compound concentration 1000.0 nM
[14] = molecular target: Tyrosine-protein kinase Lyn (Homo sapiens) (UniProt P07948); settings: Compound concentration 1000.0 nM
[15] = molecular target: Dual specificity mitogen-activated protein kinase kinase 5 (Homo sapiens) (UniProt Q13163); settings: Compound concentration 1000.0 nM
[16] = molecular target: Mitogen-activated protein kinase kinase kinase 10 (Homo sapiens) (UniProt Q02779); settings: Compound concentration 1000.0 nM
[17] = molecular target: Serine/threonine-protein kinase 38-like (Homo sapiens) (UniProt Q9Y2H1); settings: Compound concentration 1000.0 nM
[18] = molecular target: Serine/threonine-protein kinase Nek9 (Homo sapiens) (UniProt Q8TD19); settings: Compound concentration 1000.0 nM
[19] = molecular target: Mitogen-activated protein kinase kinase kinase 14 (Homo sapiens) (UniProt Q99558); settings: Compound concentration 1000.0 nM
[20] = molecular target: Cyclin-dependent kinase 18 (Homo sapiens) (UniProt Q07002); settings: Compound concentration 1000.0 nM
[21] = system: Phosphatidylinositol 4,5-bisphosphate 3-kinase catalytic subunit alpha isoform (Homo sapiens), P42336 [H1047L]; settings: Compound concentration 1000.0 nM
[22] = molecular target: Serine/threonine-protein kinase PLK4 (Homo sapiens) (UniProt O00444); settings: Compound concentration 1000.0 nM
[23] = molecular target: Protein kinase C theta type (Homo sapiens) (UniProt Q04759); settings: Compound concentration 1000.0 nM
[24] = molecular target: Protein-tyrosine kinase 2-beta (Homo sapiens) (UniProt Q14289); settings: Compound concentration 1000.0 nM
[25] = molecular target: Dual serine/threonine and tyrosine protein kinase (Homo sapiens) (UniProt Q6XUX3); settings: Compound concentration 1000.0 nM
[26] = molecular target: Ribosomal protein S6 kinase alpha-4 (Homo sapiens) (UniProt O75676); settings: Compound concentration 1000.0 nM
[27] = molecular target: Ribosomal protein S6 kinase alpha-1 (Homo sapiens) (UniProt Q15418); settings: Compound concentration 1000.0 nM
[28] = molecular target: Serine/threonine-protein kinase Sgk3 (Homo sapiens) (UniProt Q96BR1); settings: Compound concentration 1000.0 nM
[29] = molecular target: Proto-oncogene tyrosine-protein kinase Src (Homo sapiens) (UniProt P12931); settings: Compound concentration 1000.0 nM
[30] = molecular target: Serine/threonine-protein kinase 16 (Homo sapiens) (UniProt O75716); settings: Compound concentration 1000.0 nM
[31] = molecular target: Serine/threonine-protein kinase TAO3 (Homo sapiens) (UniProt Q9H2K8); settings: Compound concentration 1000.0 nM
[32] = molecular target: Non-receptor tyrosine-protein kinase TNK1 (Homo sapiens) (UniProt Q13470); settings: Compound concentration 1000.0 nM
[33] = molecular target: Activated CDC42 kinase 1 (Homo sapiens) (UniProt Q07912); settings: Compound concentration 1000.0 nM
[34] = molecular target: Kappa-type opioid receptor (Homo sapiens) (UniProt P41145); settings: Compound concentration 10.0 uM
[35] = molecular target: Histamine H4 receptor (Homo sapiens) (UniProt Q9H3N8); settings: Compound concentration 10.0 uM
[36] = molecular target: T1, Alpha-1A adrenergic receptor (Homo sapiens) (UniProt P35348); settings: Compound concentration 10.0 uM
T1 sequence (whole entry): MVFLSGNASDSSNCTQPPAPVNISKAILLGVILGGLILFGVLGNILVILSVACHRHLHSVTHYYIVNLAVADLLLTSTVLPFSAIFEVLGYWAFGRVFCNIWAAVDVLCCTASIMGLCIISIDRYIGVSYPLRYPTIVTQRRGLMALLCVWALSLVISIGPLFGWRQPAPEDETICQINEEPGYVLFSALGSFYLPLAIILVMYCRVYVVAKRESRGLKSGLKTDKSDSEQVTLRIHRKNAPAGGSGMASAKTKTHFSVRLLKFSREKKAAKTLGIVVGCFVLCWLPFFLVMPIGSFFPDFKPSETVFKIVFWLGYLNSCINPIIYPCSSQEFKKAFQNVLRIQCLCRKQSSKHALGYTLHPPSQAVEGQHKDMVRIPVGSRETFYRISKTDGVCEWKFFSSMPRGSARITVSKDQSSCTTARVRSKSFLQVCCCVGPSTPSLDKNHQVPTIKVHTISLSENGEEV

Sequence of Protein-tyrosine kinase 2-beta (Homo sapiens) (Q14289 whole entry, looked up): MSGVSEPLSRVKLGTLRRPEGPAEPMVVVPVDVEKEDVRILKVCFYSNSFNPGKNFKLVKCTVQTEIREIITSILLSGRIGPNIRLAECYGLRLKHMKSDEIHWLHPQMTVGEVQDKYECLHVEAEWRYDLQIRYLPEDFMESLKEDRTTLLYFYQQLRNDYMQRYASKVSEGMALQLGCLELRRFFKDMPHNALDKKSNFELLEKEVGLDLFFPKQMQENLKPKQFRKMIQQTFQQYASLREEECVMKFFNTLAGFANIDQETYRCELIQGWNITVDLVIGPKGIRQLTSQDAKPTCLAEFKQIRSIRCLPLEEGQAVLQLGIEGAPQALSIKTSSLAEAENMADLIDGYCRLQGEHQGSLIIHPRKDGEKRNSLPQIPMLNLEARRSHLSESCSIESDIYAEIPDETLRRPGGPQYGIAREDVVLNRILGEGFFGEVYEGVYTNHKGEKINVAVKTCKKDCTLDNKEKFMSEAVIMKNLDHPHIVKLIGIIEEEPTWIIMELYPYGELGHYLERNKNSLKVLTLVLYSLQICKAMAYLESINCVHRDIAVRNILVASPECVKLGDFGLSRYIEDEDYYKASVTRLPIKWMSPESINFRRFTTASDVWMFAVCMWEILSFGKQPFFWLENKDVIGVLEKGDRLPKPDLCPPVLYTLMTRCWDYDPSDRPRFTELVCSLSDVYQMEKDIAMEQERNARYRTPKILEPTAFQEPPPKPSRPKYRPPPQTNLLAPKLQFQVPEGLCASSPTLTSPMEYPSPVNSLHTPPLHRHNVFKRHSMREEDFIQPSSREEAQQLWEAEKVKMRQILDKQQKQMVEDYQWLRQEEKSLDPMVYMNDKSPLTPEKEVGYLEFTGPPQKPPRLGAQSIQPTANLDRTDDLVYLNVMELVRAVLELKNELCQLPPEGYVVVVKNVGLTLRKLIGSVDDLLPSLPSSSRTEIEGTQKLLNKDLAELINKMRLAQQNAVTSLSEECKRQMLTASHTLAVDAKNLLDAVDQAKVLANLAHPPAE
Sequence of Ribosomal protein S6 kinase alpha-4 (Homo sapiens) (O75676 whole entry, looked up): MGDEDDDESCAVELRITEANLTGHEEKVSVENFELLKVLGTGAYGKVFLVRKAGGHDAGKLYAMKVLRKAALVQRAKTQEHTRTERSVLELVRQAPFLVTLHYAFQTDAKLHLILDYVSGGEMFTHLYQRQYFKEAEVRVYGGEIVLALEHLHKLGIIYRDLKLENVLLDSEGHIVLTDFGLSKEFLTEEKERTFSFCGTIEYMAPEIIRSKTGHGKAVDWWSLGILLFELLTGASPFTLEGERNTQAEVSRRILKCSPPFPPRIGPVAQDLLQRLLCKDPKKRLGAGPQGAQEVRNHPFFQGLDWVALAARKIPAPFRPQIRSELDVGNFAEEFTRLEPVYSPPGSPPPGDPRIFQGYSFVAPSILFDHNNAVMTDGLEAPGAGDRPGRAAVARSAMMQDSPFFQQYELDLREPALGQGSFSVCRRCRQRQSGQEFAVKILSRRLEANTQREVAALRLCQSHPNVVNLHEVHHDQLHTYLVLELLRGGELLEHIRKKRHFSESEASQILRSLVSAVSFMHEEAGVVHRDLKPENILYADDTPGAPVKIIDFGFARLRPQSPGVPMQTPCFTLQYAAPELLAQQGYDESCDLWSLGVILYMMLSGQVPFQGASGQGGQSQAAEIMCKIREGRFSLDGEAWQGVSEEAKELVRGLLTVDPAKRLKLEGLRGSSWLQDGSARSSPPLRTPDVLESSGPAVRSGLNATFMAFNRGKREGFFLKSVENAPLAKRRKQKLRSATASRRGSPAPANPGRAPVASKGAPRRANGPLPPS
Sequence of Histamine H4 receptor (Homo sapiens) (Q9H3N8 whole entry): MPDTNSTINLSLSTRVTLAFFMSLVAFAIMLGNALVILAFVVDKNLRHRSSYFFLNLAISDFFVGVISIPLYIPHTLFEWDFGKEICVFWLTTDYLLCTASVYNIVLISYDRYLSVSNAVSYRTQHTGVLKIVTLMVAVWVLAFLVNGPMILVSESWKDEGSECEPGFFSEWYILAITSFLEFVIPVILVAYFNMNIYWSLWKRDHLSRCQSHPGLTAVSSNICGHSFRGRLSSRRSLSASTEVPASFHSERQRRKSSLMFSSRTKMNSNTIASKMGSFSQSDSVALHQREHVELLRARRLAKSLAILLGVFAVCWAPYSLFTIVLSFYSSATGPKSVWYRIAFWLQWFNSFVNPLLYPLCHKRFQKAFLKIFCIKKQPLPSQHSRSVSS
Sequence of Cyclin-dependent kinase-like 5 (Homo sapiens) (O76039 whole entry): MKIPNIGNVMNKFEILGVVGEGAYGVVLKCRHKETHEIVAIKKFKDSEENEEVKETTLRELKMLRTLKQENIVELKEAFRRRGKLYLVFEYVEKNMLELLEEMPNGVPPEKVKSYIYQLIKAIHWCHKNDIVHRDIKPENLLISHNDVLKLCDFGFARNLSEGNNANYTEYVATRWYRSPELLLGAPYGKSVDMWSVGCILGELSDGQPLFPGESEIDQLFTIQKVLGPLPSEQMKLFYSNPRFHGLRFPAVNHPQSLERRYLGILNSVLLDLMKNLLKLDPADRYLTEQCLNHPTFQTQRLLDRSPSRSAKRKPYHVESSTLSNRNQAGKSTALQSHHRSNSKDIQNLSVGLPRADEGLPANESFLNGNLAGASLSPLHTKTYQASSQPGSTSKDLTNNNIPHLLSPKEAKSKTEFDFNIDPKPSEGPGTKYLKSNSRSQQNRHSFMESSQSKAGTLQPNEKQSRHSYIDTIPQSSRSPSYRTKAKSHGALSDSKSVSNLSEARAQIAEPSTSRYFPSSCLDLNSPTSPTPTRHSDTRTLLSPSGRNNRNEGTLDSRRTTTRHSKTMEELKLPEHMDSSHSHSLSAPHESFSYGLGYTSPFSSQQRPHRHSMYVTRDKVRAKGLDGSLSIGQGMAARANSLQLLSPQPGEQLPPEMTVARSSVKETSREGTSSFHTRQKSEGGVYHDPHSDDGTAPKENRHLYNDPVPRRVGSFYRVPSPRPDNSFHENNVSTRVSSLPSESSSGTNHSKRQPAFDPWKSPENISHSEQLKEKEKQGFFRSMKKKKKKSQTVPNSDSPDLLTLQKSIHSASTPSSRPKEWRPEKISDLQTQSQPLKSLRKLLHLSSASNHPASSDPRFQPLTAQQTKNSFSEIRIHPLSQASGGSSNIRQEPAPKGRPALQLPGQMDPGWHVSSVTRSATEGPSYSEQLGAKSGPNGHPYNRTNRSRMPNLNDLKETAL
Sequence of Non-receptor tyrosine-protein kinase TNK1 (Homo sapiens) (Q13470 whole entry): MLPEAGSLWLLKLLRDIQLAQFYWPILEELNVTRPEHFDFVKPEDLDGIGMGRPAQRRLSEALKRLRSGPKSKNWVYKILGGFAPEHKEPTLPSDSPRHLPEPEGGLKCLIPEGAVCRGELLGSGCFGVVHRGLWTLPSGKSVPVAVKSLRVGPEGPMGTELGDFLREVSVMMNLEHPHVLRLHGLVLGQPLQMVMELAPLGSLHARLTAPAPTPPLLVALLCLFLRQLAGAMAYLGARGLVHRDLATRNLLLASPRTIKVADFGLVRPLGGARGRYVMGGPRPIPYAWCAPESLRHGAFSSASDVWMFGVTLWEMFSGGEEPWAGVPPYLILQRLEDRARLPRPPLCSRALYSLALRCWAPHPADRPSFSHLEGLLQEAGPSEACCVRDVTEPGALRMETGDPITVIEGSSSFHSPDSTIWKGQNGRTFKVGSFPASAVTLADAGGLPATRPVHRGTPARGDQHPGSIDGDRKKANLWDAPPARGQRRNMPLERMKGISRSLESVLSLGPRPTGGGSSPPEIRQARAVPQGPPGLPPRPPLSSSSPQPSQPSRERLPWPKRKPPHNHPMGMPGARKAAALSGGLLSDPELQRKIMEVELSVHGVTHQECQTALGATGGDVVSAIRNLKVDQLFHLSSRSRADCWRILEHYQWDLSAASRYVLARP
Sequence of Ephrin type-A receptor 7 (Homo sapiens) (Q15375 28-998 limits assumed): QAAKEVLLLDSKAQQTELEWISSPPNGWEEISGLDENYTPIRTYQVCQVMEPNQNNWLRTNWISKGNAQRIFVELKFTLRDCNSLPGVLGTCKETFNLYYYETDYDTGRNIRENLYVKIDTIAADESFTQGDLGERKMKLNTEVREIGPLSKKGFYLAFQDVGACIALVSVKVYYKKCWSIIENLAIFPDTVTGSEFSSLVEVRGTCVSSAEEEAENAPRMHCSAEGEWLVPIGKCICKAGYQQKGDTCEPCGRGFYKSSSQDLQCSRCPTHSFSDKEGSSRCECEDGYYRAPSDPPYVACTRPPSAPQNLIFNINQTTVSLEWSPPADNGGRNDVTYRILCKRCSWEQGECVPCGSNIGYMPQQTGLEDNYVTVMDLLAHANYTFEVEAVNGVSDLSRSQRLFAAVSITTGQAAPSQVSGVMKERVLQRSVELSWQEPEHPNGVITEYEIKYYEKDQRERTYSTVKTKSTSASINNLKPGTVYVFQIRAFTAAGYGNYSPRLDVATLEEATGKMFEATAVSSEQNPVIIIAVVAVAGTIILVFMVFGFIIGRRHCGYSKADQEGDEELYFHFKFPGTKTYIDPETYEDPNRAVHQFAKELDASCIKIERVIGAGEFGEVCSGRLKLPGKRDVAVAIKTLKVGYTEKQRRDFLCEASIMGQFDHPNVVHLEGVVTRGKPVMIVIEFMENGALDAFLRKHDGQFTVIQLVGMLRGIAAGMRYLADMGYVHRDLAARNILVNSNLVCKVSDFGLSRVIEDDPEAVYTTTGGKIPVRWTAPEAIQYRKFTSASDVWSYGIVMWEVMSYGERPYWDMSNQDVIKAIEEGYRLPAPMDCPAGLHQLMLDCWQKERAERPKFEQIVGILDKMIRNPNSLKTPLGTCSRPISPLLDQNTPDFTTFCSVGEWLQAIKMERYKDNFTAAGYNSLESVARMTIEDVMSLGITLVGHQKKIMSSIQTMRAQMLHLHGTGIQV
Sequence of Serine/threonine-protein kinase 16 (Homo sapiens) (O75716 whole entry): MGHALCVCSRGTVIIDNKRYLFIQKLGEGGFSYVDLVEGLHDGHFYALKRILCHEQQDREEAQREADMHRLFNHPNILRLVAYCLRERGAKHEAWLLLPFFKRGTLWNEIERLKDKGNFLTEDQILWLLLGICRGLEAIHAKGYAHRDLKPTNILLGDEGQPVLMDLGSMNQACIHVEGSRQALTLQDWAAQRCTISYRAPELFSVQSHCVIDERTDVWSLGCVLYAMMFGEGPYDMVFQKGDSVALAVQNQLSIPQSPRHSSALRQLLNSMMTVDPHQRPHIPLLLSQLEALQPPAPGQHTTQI

O=C(NCc1ncc(C(F)(F)F)cc1Cl)c1ccc2c(c1)C1(CCS(=O)(=O)CC1)[C@H](C1CC1)N2S(=O)(=O)c1ccc(F)cc1 [BAY-784]
residual activity [1]: 100%
residual activity [2]: 100%
residual activity [3]: 100%
residual activity [4]: 85%
residual activity [5]: 90%
residual activity [6]: 78%
residual activity [7]: 0%
residual activity [8]: 95%
residual activity [9]: 100%
residual activity [10]: 100%
residual activity [11]: 100%
residual activity [12]: 77%
residual activity [13]: 87%
residual activity [14]: 100%
residual activity [15]: 69%
residual activity [16]: 100%
residual activity [17]: 91%
residual activity [18]: 100%
residual activity [19]: 100%
residual activity [20]: 100%
residual activity [21]: 77%
residual activity [22]: 92%
residual activity [23]: 100%
residual activity [24]: 100%
residual activity [25]: 76%
residual activity [26]: 100%
residual activity [27]: 100%
residual activity [28]: 99%
residual activity [29]: 98%
residual activity [30]: 88%
residual activity [31]: 99%
residual activity [32]: 88%
residual activity [33]: 85%
inhibition [34]: 14.4%
inhibition [35]: -9.53%
inhibition [36]: -0.32%

O=C(NCc1ncc(C(F)(F)F)cc1Cl)c1ccc2c(c1)C1(CCS(=O)(=O)CC1)[C@@H](C1CC1)N2S(=O)(=O)c1ccc(F)cc1 [BAY-786]
residual activity [1]: 100%
residual activity [2]: 86%
residual activity [3]: 72%
residual activity [4]: 100%
residual activity [5]: 100%
residual activity [6]: 67%
residual activity [7]: 100%
residual activity [8]: 100%
residual activity [9]: 100%
residual activity [10]: 100%
residual activity [11]: 100%
residual activity [12]: 82%
residual activity [13]: 81%
residual activity [14]: 100%
residual activity [15]: 90%
residual activity [16]: 100%
residual activity [17]: 94%
residual activity [18]: 72%
residual activity [19]: 71%
residual activity [20]: 100%
residual activity [21]: 85%
residual activity [22]: 92%
residual activity [23]: 95%
residual activity [24]: 100%
residual activity [25]: 78%
residual activity [26]: 96%
residual activity [27]: 89%
residual activity [28]: 83%
residual activity [29]: 98%
residual activity [30]: 99%
residual activity [31]: 80%
residual activity [32]: 88%
residual activity [33]: 84%
inhibition [34]: 4.54%
inhibition [35]: -6.68%
inhibition [36]: 1.7%

Source: ChEMBL document CHEMBL4507266, “Data for DCP probe BAY-784” (2021)
